Measurements as given in ChEMBL document CHEMBL1155003, “Halicyclamine A, a marine spongean alkaloid as a lead for anti-tuberculosis agent” (2008).
Values after ≈ are worked out from the molar mass of the structure shown. Active and inactive are the calls of the source. The rule behind the calls is not given here.

Legend:
Mycobacterium avium = test: Antitubercular activity against Mycobacterium avium ATCC 35712 after 14 days; type: functional; conditions: ATCC 35712, 336 h
[1] = tested on: Mycolicibacterium smegmatis; test: Antitubercular activity against Mycobacterium smegmatis MC2 155 under hypoxic condition after 96 hrs by MTT method; type: functional; conditions: str. MC2 155, 96 h
[2] = tested on: Mycobacterium tuberculosis; test: Bactericidal activity against Mycobacterium tuberculosis H37Rv assessed as decrease in CFU at 20 ug/ml after 11 to 28 days; type: functional
[3] = tested on: Mycolicibacterium fortuitum; test: Antitubercular activity against Mycobacterium fortuitum ATCC 9820 after 14 days; type: functional; conditions: ATCC 9820, 336 h
Mycobacterium kansasii = test: Antitubercular activity against Mycobacterium kansasii ATCC 35775 after 14 days; type: functional; conditions: ATCC 35775, 336 h
[4] = tested on: Mycolicibacterium smegmatis; test: Bactericidal activity against Mycobacterium smegmatis MC2 155 assessed as decrease in CFU at 10 ug/ml after 4 days; type: functional, organism-based; conditions: str. MC2 155
[5] = tested on: Mycolicibacterium smegmatis; test: Antitubercular activity against guaB1 gene over-expressed Mycobacterium smegmatis MC2 155 ICHO1002; type: functional; conditions: str. MC2 155
[6] = tested on: Mycobacterium tuberculosis; test: Antitubercular activity against Mycobacterium tuberculosis H37Ra under aerobic condition after 7 days by MTT method; type: functional; conditions: 168 h
[7] = tested on: Mycobacterium tuberculosis; test: Antitubercular activity against Mycobacterium tuberculosis H37Ra under hypoxic condition after 14 days by MTT method; type: functional; conditions: 336 h
[8] = tested on: Mycobacterium intracellulare; test: Antitubercular activity against Mycobacterium intracellular ATCC 35761 after 14 days; type: functional; conditions: ATCC 35761, 336 h
Mycolicibacterium aurum = test: Antitubercular activity against Mycobacterium aurum ATCC 23366 after 14 days; type: functional; conditions: ATCC 23366, 336 h
[9] = tested on: Mycobacterium tuberculosis; test: Antitubercular activity against Mycobacterium tuberculosis Kurono ATCC 35812 after 14 days; type: functional; conditions: 336 h
[10] = tested on: Mycolicibacterium smegmatis; test: Antitubercular activity against Mycobacterium smegmatis MC2 155 under aerobic condition after 24 hrs by MTT method; type: functional; conditions: str. MC2 155, 24 h
[11] = tested on: Mycobacterium tuberculosis; test: Antitubercular activity against Mycobacterium tuberculosis H37Rv ATCC 25618 after 14 days; type: functional; conditions: 336 h
[12] = tested on: Mycolicibacterium smegmatis; test: Antitubercular activity against guaB2 gene over-expressed Mycobacterium smegmatis MC2 155 ICHO1003; type: functional; conditions: str. MC2 155
[13] = tested on: Mycolicibacterium smegmatis; test: Antitubercular activity against guaB3 gene over-expressed Mycobacterium smegmatis MC2 155 ICHO1004; type: functional; conditions: str. MC2 155
[14] = tested on: Mycolicibacterium smegmatis; test: Antitubercular activity against Mycobacterium smegmatis MC2 155 ICHO1001 with pMV261 transformant; type: functional; conditions: str. MC2 155

Structure (SMILES) | MIC (Mycobacterium avium) [µg/mL] | MIC [1] [µg/mL] | CFU/ml [2] | MIC [3] [µg/mL] | MIC (Mycobacterium kansasii) [µg/mL] | Activity [4] | MIC [5] [µg/mL] | MIC [6] [µg/mL] | MIC [7] [µg/mL] | MIC [8] [µg/mL] | MIC (Mycolicibacterium aurum) [µg/mL] | MIC [9] [µg/mL] | MIC [10] [µg/mL] | MIC [11] [µg/mL] | MIC [12] [µg/mL] | MIC [13] [µg/mL] | MIC [14] [µg/mL]
C1=C2CCCC/C=C\C=C\CCN3CC[C@@H]4[C@H](CCCCCC/C=C\C=C/CCN(C2)C[C@H]14)C3 [HALICYCLAMINE A] | 6.25 (≈ 13.5 µM) | 2.5 (≈ 5.4 µM) | <10 | 25 (≈ 54 µM) | 3.13 (≈ 6.76 µM) | Active | 2.5 (≈ 5.4 µM) | 5 (≈ 10.8 µM) | 5 (≈ 10.8 µM) | 6.25 (≈ 13.5 µM) | 6.25 (≈ 13.5 µM) | 3.13 (≈ 6.76 µM) | 2.5 (≈ 5.4 µM) | 6.25 (≈ 13.5 µM) | 2.5 (≈ 5.4 µM) | 2.5 (≈ 5.4 µM) | 2.5 (≈ 5.4 µM)
NNC(=O)c1ccncc1 [ISONIAZID] | – | 25 (≈ 182 µM) | – | – | – | – | – | 0.05 (≈ 0.365 µM) | > 100 | – | – | – | 2.5 (≈ 18.2 µM) | – | – | – | –
